Results reported in US12409199B2, “Methods of treating endometriosis and other noncancer gynecological disorders with hemp extract” (Ecofibre USA Inc., priority 2021, dated 2025).
Like-named read-outs stand apart in the source and are kept apart here.

Assays:
[1] = system: endometriosis based organoids; assay: % viability of endometriosis based organoids (FIG. 6A/6B); type: cell-based, human
Protocol: After narrowing down the range in which 50% of endometrial cancer organoids were inhibited from forming in the presence of BSHE, we then turned to other cannabis extracts comprising CBE to determine their efficacy in inhibiting cancerous organoid formation. […] These cannabis extracts were then tested against endometrial based organoids, which confirm the efficacy across the different cells, both in the endometrial cancer based organoids as well as in the endometriosis based organoids.
FIG. 6B then tests the same endometrial based organoids with a CBDA isolate. Here, slightly higher concentrations were required to reach below 10% viability. […] However, these studies confirm that the efficacy of the CE comprising CBD was conserved over different grades of endometrial cancer and also to endometriosis based organoids.

[2] = system: patient derived endometrial cancer cells; assay: Patient-derived xenograft (PDX) mice, endometrial cancer tumor volume (FIG. 7); type: in vivo; details: for decrease in tumor volume compared to starting size: day 14 (6 doses)
Protocol: Mouse studies are useful to take cell-based applications and confirm their efficacy in a whole animal system. Furthermore, the mice allow for testing of systemic delivery of the drugs. […] The mice tests were performed according to the protocol in the method section, below.
Generally, EC stem cells from the same patients that participated in the organoid studies for endometrial cancer, were injected into the mice, and allowed to grow. After tumors reached a certain size, the mice were either injected (3 times/week) with the extract-delivery vehicle or with the particular cannabis extract. After a certain amount of time elapsed, tumor size was measured. The details regarding patient-derived xenograft methodology and experimental protocol are provided in the Methods section.
The % change is an average number taken from tumor volumes of three mice compared to the starting average tumor volume on day 0 of treatment. Change can either be positive (tumor increases in size) or negative (tumor decreases in size).
Human patient cells from endometrial cancer were injected subcutaneously into female NOD/SCID gamma mice after resuspending in 100 μL solution. […] Tumor size was measured before treatment, followed by twice a week measurements. All treatment group mice were kept alive for up to 10 weeks after drug injection or until the tumor volume grows bigger than 2500 mm^3.
Tumor size was measured along with body weight at the time of tissue collection. All tumor tissues were removed carefully from the euthanized mouse body. Tumor tissue samples were kept for histology, proteomics, genomics, and other downstream processing. All downstream processing was completed following NCI Patient-Derived Models Repository SOPs.

[3] = system: stage IV chemoresistant endometrial cancer with metastatic disease; assay: Treatment of a patient with stage IV chemoresistant endometrial cancer, PET/CT follow up
Excerpt: Soon after the experiments detailed above a person came to us. They were initially diagnosed with endometriosis, and later diagnosed with endometrial cancer after presenting with significant pain and discomfort. They had already undergone a total hysterectomy and bilateral salpingo-oophorectomy followed by five rounds of chemotherapy. Each of the first five rounds of chemotherapy was a combined chemotherapy with Paclitaxil/Carboplatin.
See, Tables 1 and 2, below. […] As such, […] began standard protocol GemCap treatment in combination with a regime of 30 mg of BSHE twice daily via oral mucosal delivery and 75 mg of FSHE once daily via intravaginal delivery.

[4] = system: patient derived organoids; assay: Death of patient derived organoids, % of cells that died compared to control (Table 4); type: cell-based, human
Protocol: In addition to the agents listed above, several other drugs were tested to see if they influenced organoid growth. […] This is consistent with the patient's actual lack of response to treatment with paclitaxel.

[5] = system: organoids crafted from the patient's endometrial cancer; assay: Response of organoids crafted from the patient's endometrial cancer to alternative chemotherapies and BSHE; type: cell-based, human
Excerpt: See, Tables 1 and 2, below.

[6] = oral; cited from earlier work
non-transformed cells = details: cited from earlier work
[7] = system: organoids derived from ovarian cancer tissue; assay: Impact of pH on % viable organoids (FIG. 9)
[8] = cited from earlier work
[9] = before cannabis extract treatment

## C=C(C)[C@@H]1CCC(C)=C[C@H]1c1c(O)cc(CCCCC)c(C(=O)O)c1O [CBDA isolate, cannabidiolic acid]
[1]; 50 μg/mL, FIG. 6B
  viability outcome: complete resolution
[1]; Homo sapiens, 15 μg/mL, FIG. 6B
  viability at 15 µg/mL: < 50%
[1]; Homo sapiens, 25 μg/mL, FIG. 6B, <10% is considered 95-100% cell death
  viability at 25 µg/mL: < 10%
[2]; 30 mg/kg injected 3 times/week, day 7 (3 doses)
  increase in average tumor volume vs day 0: greater than 30%
[2]; 30 mg/kg injected 3 times/week, day 10
  decrease in average tumor volume vs day 0: greater than 30%
[2]; 30 mg/kg, day 7 to day 10
  overall decrease in average tumor volume in three days: greater than 60%
[2]; 30 mg/kg
  decrease in tumor volume compared to starting size: 70%
[2]; 30 mg/kg, day 21 (9 doses)
  decrease in average tumor volume: ~100%

## Paclitaxil/Carboplatin [reference compound]
[3]; [9]
  clinical outcome of earlier therapy: ineffective

## N.N.O=C([O-])C1(C(=O)[O-])CCC1.[Pt+2] [Carboplatin]
[4]
  % Cell Death: 30%

## Bleomycin
[4]
  % Cell Death: 53%

## gemcitabine/capecitabine [GemCap]
[5]
  response of the patient's organoids: partial response

## O=P1(N(CCCl)CCCl)NCCCO1 (centres unmarked) [Cyclosphosphamide]
[4]
  % Cell Death: 32%

## C=C(C)[C@@H]1CCC(C)=C[C@H]1c1c(O)cc(CCCCC)cc1O [CBD isolate, cannabidiol]
[1]; tested at 0, 1, 2, 3, 4, 5, 7, 10 μg/mL, FIG. 6A
  lowest dose at which the organoids are completely treated: 5 µg/mL
[6]
  delayed maximum plasma concentration (time) in some individuals: up to 6 hours
non-transformed cells
  toxicity: non-toxic
[2]; 30 mg/kg injected 3 times/week
  tumor response over the 21 days of treatment: not as responsive
[2]; 30 mg/kg
  decrease in tumor volume compared to starting size: less than 50%
[7]; 10 μg/mL, pH 8
  efficacy compared with native pH: virtually no change
[7]; pH 4
  viability at 10 µg/mL: < 1%
[7]; read-out: % of viable organoids
  viability at 10 µg/mL: ~12%
[8]; WHO 41st Expert Committee on Drug Dependence
  potential for abuse or dependence: no potential for abuse and no potential to produce dependence
[8]; chronic use, humans
  well tolerated dose: up to 1,500 mg/day
[8]; in vivo
  effect on physiological parameters (heart rate, blood pressure and body temperature), gastrointestinal transit, psychomotor or psychological functions: does not affect

## 5-Fluorouaracil/Capecitabine
[4]
  % Cell Death: 61%

## Atezolizumab
[3]; [9]
  adverse effects of earlier therapy: severe adverse effects
  clinical outcome of earlier therapy: failed

## CCN1CCN(Cc2ccc(Nc3ncc(F)c(-c4cc(F)c5nc(C)n(C(C)C)c5c4)n3)nc2)CC1 [Abemaciclib, reference compound]
[3]; human, in vivo
  adverse effects of earlier therapy: severe adverse effects

## N.N.[Cl][Pt][Cl] [Cisplatin]
[4]
  % Cell Death: 36%
